Experimental data published in patent EP2272817A1, “PAI-1 INHIBITOR” (Institute of Medicinal Molecular Design, Inc., priority 2008, dated 2009).

biological target: recombinant human PAI-1 (Homo sapiens, UniProt P05121); experiment: biochemical; settings: read-out: Inhibition Rate of PAI-1 Activity (%)
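Also: PAI-1 preincubated with compound, then two-chain tPA added, residual tPA activity read with fluorogenic Pyr-Gly-Arg-MCA substrate after 30 min at room temperature.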
Protocol: To this solution, 6 µl of 80 nM recombinant human PAI-1 (Molecular Innovations, Inc.) solution prepared with Tris buffer was added, and the plate was incubated for 5 minutes at room temperature. Furthermore, 30 µl of 800 IU/ml two-chain tPA (Activity Standard; American diagnostica, inc.) prepared with Tris buffer was added, and the mixed solution was incubated for 15 minutes at room temperature. Then, 30 µl of 400 µM fluorogenic substrate (Pyr-Gly-Arg-MCA; Peptide Institute, Inc.) for tPA prepared with Tris buffer was added and reacted for 30 minutes at room temperature.
50 mM Tris, 150 mM NaCl, 10 µg/ml BSA, 0.01 % Tween80 (SIGMA-ALDRICH Corporation)

recombinant human PAI-1, sequence (P05121 24-402): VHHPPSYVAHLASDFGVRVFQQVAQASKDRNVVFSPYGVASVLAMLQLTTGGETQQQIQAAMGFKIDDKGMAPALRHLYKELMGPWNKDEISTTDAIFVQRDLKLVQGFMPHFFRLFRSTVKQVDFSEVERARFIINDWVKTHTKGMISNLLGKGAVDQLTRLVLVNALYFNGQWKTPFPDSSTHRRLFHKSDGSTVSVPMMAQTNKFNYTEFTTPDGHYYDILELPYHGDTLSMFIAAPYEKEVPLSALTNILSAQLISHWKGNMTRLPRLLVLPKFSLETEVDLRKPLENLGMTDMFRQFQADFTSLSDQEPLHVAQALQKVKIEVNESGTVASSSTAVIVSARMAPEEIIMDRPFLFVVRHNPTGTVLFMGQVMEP

Row | Structure (SMILES) | inhibition at 5 µM [%] | inhibition at 10 µM [%] | inhibition at 25 µM [%]
1 | CC(C)(C)c1ccc(CN(C(=O)C(=O)O)c2ccc(-c3ccc(C(C)(C)C)cc3)cc2)cc1 [Compound 163] | 37 | 84 | > 99
2 | CCCCc1ccc(-c2ccc(N(Cc3ccc(C(C)(C)C)cc3)C(=O)C(=O)O)cc2)cc1 [Compound 164] | 40 | 79 | 96
3 | CC(C)(C)c1ccc(N(C(=O)C(=O)O)c2ccc(Oc3ccc(OC(F)(F)F)cc3)cc2)cc1 [Compound 165] | 27 | 64 | 96
4 | CC(C)(C)c1ccc(CN(C(=O)C(=O)O)c2ccc(-c3ccc(OC(F)(F)F)cc3)c(C(F)(F)F)c2)cc1 [Compound 166] | 44 | 79 | 84
5 | CCCCc1ccc(CN(C(=O)C(=O)O)c2ccc(-c3ccc(OC(F)(F)F)cc3)cc2)cc1 [Compound 167] | 37 | 75 | 87
6 | CC(C)(C)c1ccc(CN(C(=O)C(=O)O)c2ccc(C(F)(F)F)cc2-c2ccc(OC(F)(F)F)cc2)cc1 [Compound 169] | 59 | 91 | 84
7 | CC(C)(C)c1ccc(N(C(=O)C(=O)O)c2cccc(Oc3ccc(OC(F)(F)F)cc3)c2)cc1 [Compound 170] | 38 | 73 | 94
8 | O=C(O)C(=O)N(Cc1c(Cl)cccc1Cl)c1ccc(-c2ccc(OC(F)(F)F)cc2)cc1 [Compound 171] | 22 | 44 | 81
9 | CC(C)(C)c1ccc(CN(C(=O)C(=O)O)c2c(Cl)cc(-c3ccc(OC(F)(F)F)cc3)cc2Cl)cc1 [Compound 173] | 63 | 95 | 90
10 | CC(C)(C)c1ccc(CN(C(=O)C(=O)O)c2cc(Oc3ccc(OC(F)(F)F)cc3)cc(C(F)(F)F)c2)cc1 [Compound 175] | 66 | 94 | 87
11 | Cc1c(-c2ccc(OC(F)(F)F)cc2)cccc1N(Cc1ccc(C(C)(C)C)cc1)C(=O)C(=O)O [Compound 177] | 43 | 83 | 91
12 | Cc1cc(-c2ccc(OC(F)(F)F)cc2)cc(N(Cc2ccc(C(C)(C)C)cc2)C(=O)C(=O)O)c1 [Compound 178] | 56 | 88 | 88
13 | O=C(O)C(=O)N(Cc1ccccc1)c1c(Cl)cc(-c2ccc(OC(F)(F)F)cc2)cc1Cl [Compound 180] | 19 | 36 | 71
14 | O=C(O)C(=O)N(Cc1ccc(O)cc1)c1ccc(-c2ccc(OC(F)(F)F)cc2)cc1 [Compound 181] | 10 | 11 | 31
15 | COc1ccc(-c2ccc(OC(F)(F)F)cc2)cc1N(Cc1ccc(C(C)(C)C)cc1)C(=O)C(=O)O [Compound 182] | 56 | 85 | 89
16 | O=C(O)C(=O)N(Cc1ccc(OC(F)(F)F)cc1)c1ccc(-c2ccccc2)cc1 [Compound 183] |  | 11 | 29
17 | Cc1cc(N(Cc2ccc(C(C)(C)C)cc2)C(=O)C(=O)O)ccc1-c1ccc(OC(F)(F)F)cc1 [Compound 184] | 59 | 86 | 85
18 | Cc1ccc(N(Cc2ccc(C(C)(C)C)cc2)C(=O)C(=O)O)cc1Oc1ccc(OC(F)(F)F)cc1 [Compound 187] | 75 | 92 | 88
19 | CC(C)(C)c1ccc(CN(C(=O)C(=O)O)c2ccc(Cl)cc2Oc2ccc(OC(F)(F)F)cc2)cc1 [Compound 191] | 74 | 92 | 87
20 | CCCCCOc1ccc(-c2ccc(OC(F)(F)F)cc2)cc1N(Cc1ccccc1)C(=O)C(=O)O [Compound 195] | 77 | 94 | 93
21 | CC(C)(C)c1ccc(CN(C(=O)C(=O)O)c2ccc(-c3ccc(OC(F)(F)F)cc3)c(CCC(=O)O)c2)cc1 [Compound 196] | 18 | 35 | 64
22 | CC(C)(C)c1ccc(CN(C(=O)C(=O)O)c2ccc(-c3cccc(OC(F)(F)F)c3)cc2)cc1 [Compound 200] | 64 | 89 | 92
23 | CC(C)(C)c1ccc(CN(C(=O)C(=O)O)c2ccc(-c3ccccc3OC(F)(F)F)cc2)cc1 [Compound 201] | 64 | 89 | 82
24 | CC(C)(C)c1ccc(-c2ccc(N(Cc3ccccc3OC(F)(F)F)C(=O)C(=O)O)cc2)cc1 [Compound 202] | 70 | 94 | 98
25 | CC(C)(C)c1ccc(-c2ccc(N(Cc3cccc(OC(F)(F)F)c3)C(=O)C(=O)O)cc2)cc1 [Compound 203] | 69 | 91 | 97

Row | Structure (SMILES) | inhibition at 5 µM [%] | inhibition at 10 µM [%] | inhibition at 25 µM [%]
26 | CC(C)(C)c1ccc(-c2ccc(N(Cc3ccc(Cl)cc3)C(=O)C(=O)O)cc2)cc1 [Compound 204] | 58 | 85 | > 99
27 | CC(C)(C)c1ccc(-c2ccc(N(Cc3ccc(C(F)(F)F)cc3)C(=O)C(=O)O)cc2)cc1 [Compound 205] | 50 | 80 | 98
28 | CCC(CC)Oc1ccc(N(Cc2ccc(C(C)(C)C)cc2)C(=O)C(=O)O)c(-c2ccc(OC(F)(F)F)cc2)c1 [Compound 207] | 79 | 90 | 
29 | CC(C)Oc1ccc(N(Cc2ccc(C(C)(C)C)cc2)C(=O)C(=O)O)c(-c2ccc(OC(F)(F)F)cc2)c1 [Compound 209] | 81 | 98 | 94
30 | CCCOc1ccc(N(Cc2ccccc2)C(=O)C(=O)O)cc1-c1ccc(OC(F)(F)F)cc1 [Compound 210] | 39 | 70 | 94
31 | CC(C)(C)c1ccc(CN(C(=O)C(=O)O)c2ccc(N3CCOCC3)c(-c3ccc(OC(F)(F)F)cc3)c2)cc1 [Compound 216] | 75 | 88 | 84
32 | CC(C)(C)c1ccc(CN(C(=O)C(=O)O)c2ccc(N3CCCCC3)c(-c3ccc(OC(F)(F)F)cc3)c2)cc1 [Compound 217] | 86 | 84 | 
33 | CC(C)(C)Oc1ccc(N(Cc2ccc(C(C)(C)C)cc2)C(=O)C(=O)O)cc1-c1ccc(OC(F)(F)F)cc1 [Compound 218] | 83 | 78 | 
34 | CC(C)(C)c1ccc(CN(C(=O)C(=O)O)c2ccc(N3CCCCC3=O)c(-c3ccc(OC(F)(F)F)cc3)c2)cc1 [Compound 219] | 33 | 58 | 86
35 | CC(c1ccc(C(C)(C)C)cc1)N(C(=O)C(=O)O)c1ccc(-c2ccc(OC(F)(F)F)cc2)cc1 (stereo not shown) [Compound 220] | 51 | 86 | 89
36 | O=C(O)C(=O)N(CCc1ccccc1)c1ccc(-c2ccc(OC(F)(F)F)cc2)cc1 [Compound 223] | 13 | 27 | 
37 | O=C(O)C(=O)N(CCCc1ccccc1)c1ccc(-c2ccc(OC(F)(F)F)cc2)cc1 [Compound 224] | 29 | 53 | 86
38 | O=C(O)C(=O)N(CCCCc1ccccc1)c1ccc(-c2ccc(OC(F)(F)F)cc2)cc1 [Compound 225] | 27 | 50 | 88
39 | O=C(O)C(=O)N(CCCCCc1ccccc1)c1ccc(-c2ccc(OC(F)(F)F)cc2)cc1 [Compound 228] | 45 | 71 | 95
40 | CCCOc1ccc(N(CCCc2ccccc2)C(=O)C(=O)O)cc1-c1ccc(OC(F)(F)F)cc1 [Compound 229] | 48 | 80 | 94
41 | CCCOc1ccc(N(CCCc2ccccc2)C(=O)C(=O)O)c(-c2ccc(OC(F)(F)F)cc2)c1 [Compound 232] | 52 | 82 | 96
42 | CCCOc1ccc(-c2ccc(OC(F)(F)F)cc2)cc1N(CCCc1ccccc1)C(=O)C(=O)O [Compound 234] | 59 | 83 | 96
43 | CCCCOc1ccc(-c2ccc(OC(F)(F)F)cc2)cc1N(CCCc1ccccc1)C(=O)C(=O)O [Compound 235] | 66 | 89 | 93
44 | CCCOc1ccc(-c2ccc(OC(F)(F)F)cc2)cc1N(CCCCc1ccccc1)C(=O)C(=O)O [Compound 236] | 61 | 86 | 95
45 | CCC(CC)Oc1ccc(N(CCCc2ccccc2)C(=O)C(=O)O)c(-c2ccc(OC(F)(F)F)cc2)c1 [Compound 237] | 75 | 92 | 
46 | CC(C)Oc1ccc(N(CCCc2ccccc2)C(=O)C(=O)O)c(-c2ccc(OC(F)(F)F)cc2)c1 [Compound 239] | 43 | 80 | 98
47 | CCCOc1ccc(N(CCCCc2ccccc2)C(=O)C(=O)O)cc1-c1ccc(OC(F)(F)F)cc1 [Compound 240] | 62 | 91 | 95
48 | CCCCCOc1ccc(-c2ccc(OC(F)(F)F)cc2)cc1N(CCCCCc1ccccc1)C(=O)C(=O)O [Compound 242] | 88 | 94 | 
49 | O=C(O)C(=O)N(CCCCc1ccccc1)c1ccc(N2CCOCC2)c(-c2ccc(OC(F)(F)F)cc2)c1 [Compound 243] | 42 | 64 | 89
50 | CCCCCOc1ccc(N(CCCCc2ccccc2)C(=O)C(=O)O)cc1-c1ccc(OC(F)(F)F)cc1 [Compound 244] | 71 | 91 | 
